Key:
MOOVA (Monochoria) = assay: Preemergence weed control under flooded paddy conditions; format: in vivo, Monochoria vaginalis; conditions: rated 3-4 weeks after treatment
In short: (§1)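 Silt loam, seeds in top 0.5 cm; flood held 1.5-3 cm; test cpd as acetone/water 50/50 into flood water, ~0.0313-0.500 kg/ha a.i.; greenhouse 3-4 wk; visual 0-9 score vs control.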

CASOB (Sicklepod) [1] = assay: Postemergence herbicidal evaluation; format: in vivo, Cassia obtusifolia; conditions: postemergence
In short: (§2)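 Seedlings grown about two weeks were sprayed at 40 psi with compound dispersed in 50/50 acetone/water plus 0.5% TWEEN 20, at about 0.0156 to 0.500 kg/ha. Plants were kept in the greenhouse and scored 4–5 weeks later on a 0–9 visual scale against untreated controls.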

[2] = system: GLXMAW (Soybean, Williams); assay: Preemergence herbicidal evaluation; format: in vivo, Glycine max, (L.) Merr. cv Williams; conditions: rated 4-5 weeks after treatment, rating scale 0-9
In short: (§3)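 Scores use a 0–9 visual scale covering stand, vigor, malformation, size and chlorosis relative to controls, rated four to five weeks after treatment. Before emergence, soil-planted seeds were sprayed with compound in aqueous acetone at roughly 0.0156–0.500 kg/ha and held in the greenhouse.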

[3] = system: CHEAL (Lambsquarters, Common); assay: Postemergence herbicidal evaluation; format: in vivo, Chenopodium album; conditions: postemergence
In short: as §2

CASOB (Sicklepod) [4] = assay: Preemergence herbicidal evaluation; format: in vivo, Cassia obtusifolia; conditions: rated 4-5 weeks after treatment, rating scale 0-9
In short: as §3

[5] = system: GLXMAW (Soybean, Williams); assay: Postemergence herbicidal evaluation; format: in vivo, Glycine max, (L.) Merr. cv Williams; conditions: postemergence
In short: as §2

AMBEL (Ragweed, Common) [6] = assay: Preemergence herbicidal evaluation; format: in vivo, Ambrosia artemisifolia; conditions: rated 4-5 weeks after treatment, rating scale 0-9
In short: as §3

ORYSAT (Rice, Tebonnet) = assay: Preemergence herbicidal evaluation; format: in vivo, Oryza sativa, (L.) Tebonnet; conditions: rated 4-5 weeks after treatment, rating scale 0-9
In short: as §3

ABUTH (Velvetleaf) = assay: Preemergence herbicidal evaluation; format: in vivo, Abutilon theophrasti; conditions: rated 4-5 weeks after treatment, rating scale 0-9
In short: as §3

AMBEL (Ragweed, Common) [7] = assay: Postemergence herbicidal evaluation; format: in vivo, Ambrosia artemisifolia; conditions: postemergence
In short: as §2

[8] = system: IPOHE (Morningglory, Ivyleaf); assay: Preemergence herbicidal evaluation; format: in vivo, Ipomoea hederacea; conditions: rated 4-5 weeks after treatment, rating scale 0-9
In short: as §3

[9] = system: SAGPY (Arrowhead (Pygmaea)); assay: Preemergence weed control under flooded paddy conditions; format: in vivo, Sagittaria pygmaea; conditions: rated 3-4 weeks after treatment
In short: as §1

[10] = system: IPOHE (Morningglory, Ivyleaf); assay: Postemergence herbicidal evaluation; format: in vivo, Ipomoea hederacea; conditions: postemergence
In short: as §2

[11] = system: CHEAL (Lambsquarters, Common); assay: Preemergence herbicidal evaluation; format: in vivo, Chenopodium album; conditions: rated 4-5 weeks after treatment, rating scale 0-9
In short: as §3

ECHCG (Barnyardgrass) = assay: Postemergence herbicidal evaluation; format: in vivo, Echinochloa crus-galli; conditions: postemergence
In short: as §2

[12] = system: TRZAWR (Wheat, Winter, cv Riband); assay: Postemergence herbicidal evaluation; format: in vivo, Triticum aestivum; conditions: postemergence
In short: as §2

Compound: Cn1c(C(F)(F)F)cc(=O)n(-c2cc(N=C3SCC(=O)N3Cc3ccc(C(F)(F)F)cc3)c(Cl)cc2F)c1=O [Compound 141, 3-{4-Chloro-2-fluoro-5-{{3-[p-(trifluoromethyl)benzyl]-4-oxo-2-thiazolidinylidene}-amino}phenyl}-1-methyl-6-(trifluoromethyl)-2,4 (1H, 3H)-pyrimidinedione]
- herbicidal effect rating, MOOVA (MOOVA (Monochoria); 0.0313 kg/ha): 7.0
- herbicidal effect rating, MOOVA (MOOVA (Monochoria); 0.0625 kg/ha): 8.0
- herbicidal effect rating, MOOVA (MOOVA (Monochoria); 0.1250 kg/ha): 8.0
- herbicidal effect rating, MOOVA (MOOVA (Monochoria); 0.2500 kg/ha): 9.0
- Herbicidal rating CASOB (CASOB (Sicklepod) [1]; rate 0.0156 kg/ha): 0.0
- Herbicidal rating CASOB (CASOB (Sicklepod) [1]; rate 0.0313 kg/ha): 0.0
- Herbicidal rating CASOB (CASOB (Sicklepod) [1]; rate 0.0625 kg/ha): 0.0
- Preemergence herbicidal rating GLXMAW ([2]; rate 0.0156 kg/ha): 0.0
- Preemergence herbicidal rating GLXMAW ([2]; rate 0.0313 kg/ha): 0.0
- Preemergence herbicidal rating GLXMAW ([2]; rate 0.0625 kg/ha): 0.0
- Preemergence herbicidal rating GLXMAW ([2]; rate 0.1250 kg/ha): 0.0
- Preemergence herbicidal rating GLXMAW ([2]; rate 0.2500 kg/ha): 3.0
- Herbicidal rating CHEAL ([3]; rate 0.0156 kg/ha): 3.0
- Herbicidal rating CHEAL ([3]; rate 0.0313 kg/ha): 5.0
- Herbicidal rating CHEAL ([3]; rate 0.0625 kg/ha): 9.0
- Preemergence herbicidal rating CASOB (CASOB (Sicklepod) [4]; rate 0.0156 kg/ha): 0.0
- Preemergence herbicidal rating CASOB (CASOB (Sicklepod) [4]; rate 0.0313 kg/ha): 0.0
- Preemergence herbicidal rating CASOB (CASOB (Sicklepod) [4]; rate 0.0625 kg/ha): 0.0
- Preemergence herbicidal rating CASOB (CASOB (Sicklepod) [4]; rate 0.1250 kg/ha): 0.0
- Preemergence herbicidal rating CASOB (CASOB (Sicklepod) [4]; rate 0.2500 kg/ha): 3.0
- Herbicidal rating GLXMAW ([5]; rate 0.0156 kg/ha): 4.0
- Herbicidal rating GLXMAW ([5]; rate 0.0313 kg/ha): 4.0
- Herbicidal rating GLXMAW ([5]; rate 0.0625 kg/ha): 4.5
- Preemergence herbicidal rating AMBEL (AMBEL (Ragweed, Common) [6]; rate 0.0156 kg/ha): 0.0
- Preemergence herbicidal rating AMBEL (AMBEL (Ragweed, Common) [6]; rate 0.0313 kg/ha): 0.0
- Preemergence herbicidal rating AMBEL (AMBEL (Ragweed, Common) [6]; rate 0.0625 kg/ha): 0.0
- Preemergence herbicidal rating AMBEL (AMBEL (Ragweed, Common) [6]; rate 0.1250 kg/ha): 0.0
- Preemergence herbicidal rating AMBEL (AMBEL (Ragweed, Common) [6]; rate 0.2500 kg/ha): 4.0
- Preemergence herbicidal rating ORYSAT (ORYSAT (Rice, Tebonnet); rate 0.0156 kg/ha): 0.0
- Preemergence herbicidal rating ORYSAT (ORYSAT (Rice, Tebonnet); rate 0.0313 kg/ha): 0.0
- Preemergence herbicidal rating ORYSAT (ORYSAT (Rice, Tebonnet); rate 0.0625 kg/ha): 0.0
- Preemergence herbicidal rating ORYSAT (ORYSAT (Rice, Tebonnet); rate 0.1250 kg/ha): 0.0
- Preemergence herbicidal rating ORYSAT (ORYSAT (Rice, Tebonnet); rate 0.2500 kg/ha): 0.0
- Preemergence herbicidal rating ABUTH (ABUTH (Velvetleaf); rate 0.0156 kg/ha): 0.0
- Preemergence herbicidal rating ABUTH (ABUTH (Velvetleaf); rate 0.0313 kg/ha): 0.0
- Preemergence herbicidal rating ABUTH (ABUTH (Velvetleaf); rate 0.0625 kg/ha): 0.0
- Preemergence herbicidal rating ABUTH (ABUTH (Velvetleaf); rate 0.1250 kg/ha): 4.0
- Preemergence herbicidal rating ABUTH (ABUTH (Velvetleaf); rate 0.2500 kg/ha): 9.0
- Herbicidal rating AMBEL (AMBEL (Ragweed, Common) [7]; rate 0.0156 kg/ha): 7.0
- Herbicidal rating AMBEL (AMBEL (Ragweed, Common) [7]; rate 0.0313 kg/ha): 7.0
- Herbicidal rating AMBEL (AMBEL (Ragweed, Common) [7]; rate 0.0625 kg/ha): 9.0
- Preemergence herbicidal rating IPOHE ([8]; rate 0.0156 kg/ha): 0.0
- Preemergence herbicidal rating IPOHE ([8]; rate 0.0313 kg/ha): 0.0
- Preemergence herbicidal rating IPOHE ([8]; rate 0.0625 kg/ha): 0.0
- Preemergence herbicidal rating IPOHE ([8]; rate 0.1250 kg/ha): 0.0
- Preemergence herbicidal rating IPOHE ([8]; rate 0.2500 kg/ha): 3.0
- herbicidal effect rating, SAGPY ([9]; 0.0313 kg/ha): 4.0
- herbicidal effect rating, SAGPY ([9]; 0.0625 kg/ha): 5.0
- herbicidal effect rating, SAGPY ([9]; 0.1250 kg/ha): 5.0
- herbicidal effect rating, SAGPY ([9]; 0.2500 kg/ha): 6.0
- Herbicidal rating IPOHE ([10]; rate 0.0156 kg/ha): 9.0
- Herbicidal rating IPOHE ([10]; rate 0.0313 kg/ha): 9.0
- Herbicidal rating IPOHE ([10]; rate 0.0625 kg/ha): 9.0
- Preemergence herbicidal rating CHEAL ([11]; rate 0.0156 kg/ha): 3.0
- Preemergence herbicidal rating CHEAL ([11]; rate 0.0313 kg/ha): 9.0
- Preemergence herbicidal rating CHEAL ([11]; rate 0.0625 kg/ha): 9.0
- Preemergence herbicidal rating CHEAL ([11]; rate 0.1250 kg/ha): 9.0
- Preemergence herbicidal rating CHEAL ([11]; rate 0.2500 kg/ha): 9.0
- Herbicidal rating ECHCG (ECHCG (Barnyardgrass); rate 0.0156 kg/ha): 0.0
- Herbicidal rating ECHCG (ECHCG (Barnyardgrass); rate 0.0313 kg/ha): 0.0
- Herbicidal rating ECHCG (ECHCG (Barnyardgrass); rate 0.0625 kg/ha): 0.0
- Herbicidal rating TRZAWR ([12]; rate 0.0156 kg/ha): 3.0
- Herbicidal rating TRZAWR ([12]; rate 0.0313 kg/ha): 3.5
- Herbicidal rating TRZAWR ([12]; rate 0.0625 kg/ha): 4.5
